Reference: ChEMBL document CHEMBL2040771, “Discovery of a potent inhibitor of anaplastic lymphoma kinase with in vivo antitumor activity” (ACS Med Chem Lett, 2010)

Legend:
[1] = target: ALK tyrosine kinase receptor (Homo sapiens, UniProt Q9UM73); experiment: Inhibition of ALK
Insulin receptor = Insulin receptor (Homo sapiens, UniProt P06213); experiment: Inhibition of insulin receptor
[2] = Oral bioavailability in rat; assay type: ADME, organism-based; conditions: in vivo

Sequence of Insulin receptor (P06213 28-758 limits assumed): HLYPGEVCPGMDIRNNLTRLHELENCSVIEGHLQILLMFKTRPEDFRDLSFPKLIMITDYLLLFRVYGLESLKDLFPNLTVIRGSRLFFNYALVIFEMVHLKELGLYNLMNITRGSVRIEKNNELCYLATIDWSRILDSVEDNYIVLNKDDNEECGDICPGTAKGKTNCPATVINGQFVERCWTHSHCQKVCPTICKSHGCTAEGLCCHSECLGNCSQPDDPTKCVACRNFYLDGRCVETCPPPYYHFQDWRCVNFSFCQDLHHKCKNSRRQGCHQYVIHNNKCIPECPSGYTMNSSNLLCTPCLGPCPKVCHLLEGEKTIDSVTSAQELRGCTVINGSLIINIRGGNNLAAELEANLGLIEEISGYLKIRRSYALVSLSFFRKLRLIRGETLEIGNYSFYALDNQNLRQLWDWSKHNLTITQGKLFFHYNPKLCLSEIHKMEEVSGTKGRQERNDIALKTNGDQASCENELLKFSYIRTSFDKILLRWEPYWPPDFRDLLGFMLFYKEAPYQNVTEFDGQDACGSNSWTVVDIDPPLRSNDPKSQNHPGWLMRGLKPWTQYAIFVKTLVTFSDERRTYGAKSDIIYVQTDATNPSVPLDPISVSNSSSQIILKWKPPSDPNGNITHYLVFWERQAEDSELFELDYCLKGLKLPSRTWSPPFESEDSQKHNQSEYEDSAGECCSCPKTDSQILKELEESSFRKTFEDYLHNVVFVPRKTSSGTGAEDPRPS
Sequence of Insulin receptor (P06213 763-1382 limits assumed): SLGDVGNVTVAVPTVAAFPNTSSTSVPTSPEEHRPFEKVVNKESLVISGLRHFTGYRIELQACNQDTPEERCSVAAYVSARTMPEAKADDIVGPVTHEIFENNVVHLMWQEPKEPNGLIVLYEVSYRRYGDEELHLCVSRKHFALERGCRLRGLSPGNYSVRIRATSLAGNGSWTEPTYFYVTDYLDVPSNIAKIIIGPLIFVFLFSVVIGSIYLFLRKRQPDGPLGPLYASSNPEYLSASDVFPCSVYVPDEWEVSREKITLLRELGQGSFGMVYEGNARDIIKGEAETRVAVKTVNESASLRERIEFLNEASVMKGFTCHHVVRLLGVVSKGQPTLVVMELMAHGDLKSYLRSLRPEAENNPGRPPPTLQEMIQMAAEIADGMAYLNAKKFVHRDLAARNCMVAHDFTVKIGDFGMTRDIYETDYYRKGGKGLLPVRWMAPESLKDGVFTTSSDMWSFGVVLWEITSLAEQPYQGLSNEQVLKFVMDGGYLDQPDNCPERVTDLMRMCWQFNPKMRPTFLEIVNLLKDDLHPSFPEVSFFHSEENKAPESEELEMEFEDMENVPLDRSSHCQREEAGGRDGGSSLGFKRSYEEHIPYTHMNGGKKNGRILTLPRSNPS
Sequence of ALK tyrosine kinase receptor (Q9UM73 whole entry): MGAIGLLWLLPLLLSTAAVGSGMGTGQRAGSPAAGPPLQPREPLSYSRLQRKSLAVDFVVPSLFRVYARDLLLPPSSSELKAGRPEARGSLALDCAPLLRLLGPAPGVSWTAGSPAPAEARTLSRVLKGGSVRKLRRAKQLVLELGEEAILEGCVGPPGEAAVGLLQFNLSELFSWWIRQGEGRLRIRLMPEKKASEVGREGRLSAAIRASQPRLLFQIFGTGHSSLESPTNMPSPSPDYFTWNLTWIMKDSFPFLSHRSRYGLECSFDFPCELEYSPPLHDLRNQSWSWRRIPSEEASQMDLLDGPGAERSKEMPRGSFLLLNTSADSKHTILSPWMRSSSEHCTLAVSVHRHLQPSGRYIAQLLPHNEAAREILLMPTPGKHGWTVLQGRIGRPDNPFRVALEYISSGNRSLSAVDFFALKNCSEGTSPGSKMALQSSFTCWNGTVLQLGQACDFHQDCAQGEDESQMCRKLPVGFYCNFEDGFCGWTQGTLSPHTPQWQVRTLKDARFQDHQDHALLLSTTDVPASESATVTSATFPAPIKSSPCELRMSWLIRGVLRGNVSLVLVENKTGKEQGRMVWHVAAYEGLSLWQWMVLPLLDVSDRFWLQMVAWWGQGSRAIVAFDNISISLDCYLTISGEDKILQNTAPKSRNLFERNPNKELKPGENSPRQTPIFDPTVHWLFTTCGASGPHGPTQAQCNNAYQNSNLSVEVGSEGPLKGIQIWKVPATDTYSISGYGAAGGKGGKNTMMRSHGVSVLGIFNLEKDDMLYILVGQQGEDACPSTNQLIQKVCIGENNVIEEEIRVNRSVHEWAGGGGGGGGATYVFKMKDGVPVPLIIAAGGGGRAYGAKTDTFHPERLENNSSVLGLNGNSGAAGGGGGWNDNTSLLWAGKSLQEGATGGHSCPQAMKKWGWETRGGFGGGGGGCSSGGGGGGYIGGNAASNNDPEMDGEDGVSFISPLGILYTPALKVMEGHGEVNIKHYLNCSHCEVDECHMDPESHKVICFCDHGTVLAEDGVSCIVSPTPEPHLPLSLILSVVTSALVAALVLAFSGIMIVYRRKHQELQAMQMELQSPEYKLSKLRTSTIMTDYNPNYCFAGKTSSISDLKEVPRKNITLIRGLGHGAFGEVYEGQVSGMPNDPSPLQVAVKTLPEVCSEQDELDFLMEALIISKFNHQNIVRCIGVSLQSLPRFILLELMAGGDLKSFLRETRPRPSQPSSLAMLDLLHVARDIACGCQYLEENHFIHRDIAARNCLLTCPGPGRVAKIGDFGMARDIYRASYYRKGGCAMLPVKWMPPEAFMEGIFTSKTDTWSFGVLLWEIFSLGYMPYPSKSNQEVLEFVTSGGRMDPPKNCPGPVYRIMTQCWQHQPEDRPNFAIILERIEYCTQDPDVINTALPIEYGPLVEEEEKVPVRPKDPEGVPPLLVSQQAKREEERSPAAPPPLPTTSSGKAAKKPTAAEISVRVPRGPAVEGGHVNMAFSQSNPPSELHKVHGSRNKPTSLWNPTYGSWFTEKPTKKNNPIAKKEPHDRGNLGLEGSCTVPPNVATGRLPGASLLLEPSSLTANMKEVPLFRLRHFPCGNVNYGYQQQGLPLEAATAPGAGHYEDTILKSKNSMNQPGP

| IC50 [1] [nM] | IC50 (Insulin receptor) [nM] | bioavailability [2] [%] | Structure (SMILES) |
| --- | --- | --- | --- |
| 568 | 247 | – | CNC(=O)c1cccc(Nc2nc(Nc3ccc4c(c3)CCCC(=O)N4C)ncc2Cl)c1 |
| – | 91 | 13 | CN1C(=O)CCCc2cc(Nc3ncc(Cl)c(N[C@H]4[C@@H](C(N)=O)[C@@H]5C=C[C@H]4C5)n3)ccc21 (racemic) |
| – | – | 9 | CNC(=O)c1ccccc1Nc1nc(Nc2ccc3c(c2)CCCC(=O)N3C)ncc1Cl |
| – | 32 | – | CCN1C(=O)CCCc2c1ccc(Nc1ncc(Cl)c(Nc3ccccc3S(=O)(=O)C(C)C)n1)c2OC |
| – | 89 | – | CCN1C(=O)CCCc2cc(Nc3ncc(Cl)c(N[C@H]4[C@@H](C(N)=O)[C@@H]5C=C[C@H]4C5)n3)c(OC)cc21 |
| – | 215 | – | CCN1C(=O)CCCc2c1ccc(Nc1ncc(Cl)c(Nc3ccccc3C(=O)NC)n1)c2OC |
| – | 12 | – | CCN1C(=O)CCCc2cc(Nc3ncc(Cl)c(Nc4ccccc4S(=O)(=O)C(C)C)n3)c(OC)cc21 |
| – | 37 | – | CCN1C(=O)CCCc2cc(Nc3ncc(Cl)c(Nc4ccccc4S(=O)(=O)N(C)C)n3)c(OC)cc21 |
| – | 10 | 11 | CNS(=O)(=O)c1ccccc1Nc1nc(Nc2ccc3c(c2)CCCC(=O)N3C)ncc1Cl |
| – | 319 | – | CN1C(=O)CCCc2cc(Nc3ncc(Cl)c(N[C@@H]4CCCC[C@@H]4C(N)=O)n3)ccc21 (racemic) |
| – | 34 | – | CCN1C(=O)CCCc2cc(Nc3ncc(Cl)c(Nc4ccccc4C(=O)NC)n3)c(OC)cc21 |
| – | 71 | – | CCN1C(=O)CCCc2c1ccc(Nc1ncc(Cl)c(Nc3ccccc3S(=O)(=O)N(C)C)n1)c2OC |
| – | 2010 | – | CN1C(=O)CCCc2cc(Nc3ncc(Cl)c(N[C@@H]4CCCC[C@H]4C(N)=O)n3)ccc21 (racemic) |
